Test results taken from PubChem BioAssay (NCI).
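1) Cells in 96-well plates. 2) Compound, 48 h, 5 concentrations. 3) Linear interpolation between surrounding doses. 4) Unreached endpoint = highest concentration. GI50 = concentration required for 50% inhibition of growth. TGI denotes the concentration required for complete inhibition of growth.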

Experiments:
Assay in all cases: NCI-60 cell line screen, 48 h
RXF 393 renal = test system: RXF 393 renal
SK-MEL-28 melanoma = test system: SK-MEL-28 melanoma
SNB-19 CNS = test system: SNB-19 CNS
OVCAR-4 ovarian = test system: OVCAR-4 ovarian
SK-MEL-2 melanoma = test system: SK-MEL-2 melanoma
M14 melanoma = test system: M14 melanoma
ACHN renal = test system: ACHN renal
A549 NSCLC = test system: A549 NSCLC
OVCAR-3 ovarian = test system: OVCAR-3 ovarian
NCI/ADR-RES ovarian = test system: NCI/ADR-RES ovarian

Compound | TGI (RXF 393 renal) [µM] | TGI (SK-MEL-28 melanoma) [µM] | TGI (SNB-19 CNS) [µM] | TGI (OVCAR-4 ovarian) [µM] | TGI (SK-MEL-2 melanoma) [µM] | TGI (M14 melanoma) [µM] | TGI (ACHN renal) [µM] | TGI (A549 NSCLC) [µM] | TGI (OVCAR-3 ovarian) [µM] | GI50 (RXF 393 renal) [µM] | GI50 (SK-MEL-28 melanoma) [µM] | GI50 (SNB-19 CNS) [µM] | GI50 (SK-MEL-2 melanoma) [µM] | GI50 (NCI/ADR-RES ovarian) [µM] | TGI (NCI/ADR-RES ovarian) [µM] | GI50 (ACHN renal) [µM] | GI50 (A549 NSCLC) [µM] | GI50 (OVCAR-3 ovarian) [µM] | GI50 (OVCAR-4 ovarian) [µM] | GI50 (M14 melanoma) [µM]
O=C(O)CCCCCO | > 100 | > 100 | > 100 | > 100 | > 100 | > 100 | > 100 | > 100 | > 100 |  |  |  |  |  |  |  |  |  |  | 
Cc1ncc(C(=O)Nc2ccc(CN3CCN(C)CC3)c(C(F)(F)F)c2)cc1C#Cc1cnc(N)c2ncccc12 | 1.49 | 1.49 | 5.33 |  | 0.747 |  | 1.65 | 2.69 | 4.96 | 0.0984 | 0.056 | 2.16 | 0.0783 | 1.34 | 3.76 | 0.063 | 0.391 | 1.32 |  | 
COc1cc([C@@H]2c3cc4c(cc3[C@@H](NCc3ccccc3)C3COC(=O)[C@@H]32)OCO4)cc(OC)c1O (stereo partly specified) | 72.2 | > 100 | 42 | > 75.5 | 52.2 | 36.6 | 5.92 | 15.4 | 42.5 |  |  |  |  |  |  |  |  |  |  | 
Cc1ccc(S(=O)(=O)SCc2ccccc2CSS(=O)(=O)c2ccc(C)cc2)cc1 | 29.6 | 36.6 | > 100 | 33.9 |  | 47.3 | > 100 | > 100 | 43.7 |  |  |  |  |  |  |  |  |  |  | 
O=C1[C@@H]2C3SC(c4ccccc43)[C@@H]2C(=O)N1c1ccccc1 | > 100 | > 100 | > 100 |  | > 100 | > 100 | > 100 | > 100 | > 100 |  |  |  |  |  |  |  |  |  |  | 
NCCCC1NC(=O)/C(=C(O)/C=C/C2CCC[C@@H]2CC2SCCS2)C1=O (stereo partly specified) | > 100 | > 100 | > 100 | > 100 | > 100 | > 100 | > 100 | > 100 | > 100 |  |  |  |  |  |  |  |  |  |  | 
CCc1ccc(Nc2cc(=O)[nH]c(=S)n2C)cc1 | > 100 |  | > 100 | > 100 | > 100 | > 100 |  | > 100 | > 100 |  |  |  |  |  |  |  |  |  |  | 
COc1ccc2nc(NC(=O)C(=O)C(C(=O)c3ccccc3-c3ccccc3)C3OC(=O)c4ccccc43)sc2c1 (stereo unspecified) | 23.8 | 51 |  |  | 28 | 41.5 | 73.9 | 76.4 | 48.2 |  |  |  |  |  |  |  |  |  |  | 
Nc1ccc2c(c1)CC1c3ccccc3C(C2)c2ccccc21 | > 100 |  | > 100 | > 100 | > 100 | > 100 | > 100 | > 100 |  |  |  |  |  |  |  |  |  |  |  | 
CCC[CH2][Ge]([CH2]CCC)([CH2]CCC)[O]C(=O)C(OC)c1ccccc1 (stereo unspecified) | 27.8 | > 100 | > 100 | > 100 | > 100 | 49.8 | > 75.2 | > 100 | > 70.2 | 6.9 | 52.3 | > 93.9 | 42.4 |  |  | 25.2 | > 36.9 | 11.1 | 15.3 | 16.7
CN(C)CC/C(=N\Nc1ccc(Cl)c(Cl)c1)c1ccccc1 | 8.47 | 6.43 | 13.8 | 5.01 |  |  | 3.05 | 3.8 | 6.45 |  |  |  |  |  |  |  |  |  |  | 
COc1c(NC(=O)CC(C)=O)[c]([Hg][O]C(C)=O)c(OC)c(Cl)[c]1[Hg][O]C(C)=O | 24.7 | 23.9 | 32.3 | 35.7 | 27.6 | 25.7 | 25.6 | 47 | 26 | 9.7 | 11.3 | 18 | 14.4 |  |  | 13 | 21.9 | 13.3 | 14.5 | 13
Cc1ccc(NC(=O)CC/C(CC(=O)c2ccc(F)cc2)=N\NC(=O)C(=O)NN)cc1C | > 100 | > 100 | > 100 | > 100 | > 100 | > 100 | > 100 | > 100 | > 100 |  |  |  |  |  |  |  |  |  |  | 
COc1cc(C(=O)C/C(CCC(=O)Nc2ccc(Cl)cc2Cl)=N/NC(=O)C(N)=O)ccc1O |  | > 100 | > 100 | > 100 | > 100 | > 100 | > 100 | > 100 | > 100 |  |  |  |  |  |  |  |  |  |  | 
CCOC(=O)N1N=NC2C3OC(C[C@@]3(C#N)OC(C)=O)[C@H]21 (stereo partly specified) | > 100 | > 100 | > 100 | > 100 | > 100 | > 100 | > 100 | > 100 | > 100 |  |  |  |  |  |  |  |  |  |  | 
N#CCN1CCOCCOCCN(CC#N)CCOCCOCC1 | > 100 | > 100 | > 100 | > 100 |  | > 100 | > 100 | > 100 | > 100 |  |  |  |  |  |  |  |  |  |  | 
CCOC(=O)[C@H]1Nc2ccc(Cl)cc2[C@H]2OCC[C@@H]12 | > 100 | > 100 | > 100 | > 100 | > 100 | > 100 | > 100 | > 100 | > 100 |  |  |  |  |  |  |  |  |  |  | 
Nc1nc(N)c(N=O)c(Nc2ccc(I)cc2)n1 | 55.2 | 52.3 | > 100 |  | 34.1 | 56.6 | > 100 | > 100 | 43.7 |  |  |  |  |  |  |  |  |  |  | 
CCC[CH2][Sn]([CH2]CCC)([O]C(=O)c1cc(OC)c(OC)cc1OC)[O]C(=O)c1cc(OC)c(OC)cc1OC | 1.47 | 2.23 | 1.82 | 4.31 | 2.54 | 2.99 | 3 | 18.3 | 2.86 | 0.327 | 0.971 | 0.626 | 1.26 |  |  | 1.62 | 5.14 | 1.3 | 1.9 | 1.51
Cc1c(C(=O)/C=C/c2ccccc2Cl)[n+](=O)c2ccccc2n1[O-] |  | 31.6 | 31 | 25.8 | 27.3 | 29 | 31.9 | 33.3 | 29.4 |  |  |  |  |  |  |  |  |  |  | 
O=Cc1ccc(Oc2c3ccccc3nc3occc23)cc1 | 9.17 | 34.3 | > 100 | 52.9 |  | 30.3 |  | 50.5 | 11.3 | 2.32 | 17.9 | 28.8 |  | 15.2 | 45 |  | 22.4 | 2.59 | 15.8 | 15.9
